In one series the test system is B16BL6 melanoma cells. Briefly: metastasis of B16BL6 melanoma cells (lung metastatic deposits in mice). The series is classed as in vivo, mouse. Details: key to Inhibition of metastasis: +: effective; -: not effective. On the procedure: BL6 cells were injected into mice and metastatic deposits in the lung were assessed after various treatments including route and timing, of administration.

The subject of the next series is platelets. The experiment in a line: platelet aggregation (aggregometer, thrombin or ADP). The format is cell-based. Details: key to Inhiition of PA: +: effective; -: not effective. The procedure: Platelets were isolated from platelet-rich plasma (purchased from the Oregon Red Cross, Portland, Oreg.). Contaminating erythrocytes were removed by centrifugation (80×g for 10 minutes). Platelets were obtained by centrifugation (300×g for 10 minutes), washed once in Tyrode buffer (pH 6.5) containing 22 mM trisodium citrate and 0.35% (w/v) BSA and resuspended in the same buffer to obtain a concentration of 1-2×10^9 platelets/ml. All procedures were performed at room temperature.
A suspension of platelets (about 3.5×10^8 /ml) in Tyrode buffer was preincubated with inhibitor compounds (H-7 [1-(5-isoquinolinylsulfonyl)-2-methylpiperazine, a synthetic protein kinase-C inhibitor purchased from Seikagaku America Inc., St. Petersburg, Fla.], Calphostin-C [a synthetic protein kinase-C inhibitor obtained from Dr. Saitoh, Kyowa Hakko Co., Ltd., Machida, Tokyo, Japan], sphingosine [purchased from Sigma, St. Louis, Mo.] and dimethylsphingosine and trimethylsphingosine [synthesized according to Igarashi et al., Biochem., 28, 6796, 1989]) followed by addition of thrombin or ADP (both purchased from Sigma). Platelet aggregation was evaluated by transmittance change using an aggregometer (Chrono-log Corp., Havertown, Pa.) equipped with a computer analyzer.

In series [1] the test system is PK-C. Briefly: PK-C activity bioassay (histone III-S or myelin basic protein substrate). The format is biochemical, human (A431 cells) or mouse brain. Details: key: +: effective; -: not effective. On the procedure:
In another in vitro assay, the influence of various compounds on PK-C activity was monitored. Certain tumor cells present high levels of PK-C activity. The human epidermoid carcinoma cell line A-431 (ATCC No. CRL 1555) was used in a bioassay for PK-C activity as described in Igarashi et al. (supra). Briefly, phosphatidylserine (5 μg/tube) and 1,2-diolein (0.05 μg/tube), with or without an appropriate quantity of a sphingosine derivative sample, were added in an organic solvent, ethanol or ethanol/chloroform, to a 1.5 ml tube (Sarstedt) and the mixture was evaporated under a N2 stream. The lipid mixture was sonicated in about 30 μl of 20 mM Tris-HCl (pH 7.5) for 30 minutes.
The resulting liposomes were supplemented with a buffer mixture comprising 25 mM Tris-HCl (pH 7.5), 10 mM MgCl2, […], 50 μM EGTA, 500 μM CaCl2, […] histone III-S or myelin basic protein and 20 μM γ[^32 P]-ATP (2×10^6 cpm) to a final volume of about 90 μl. […]
The precipitate was collected by centrifugation, washed twice with 1 ml of 25% TCA, then dissolved in 1 ml of 1 M NaOH containing 0.1% deoxycholate with slight heating (80° C. for ten minutes) and counted in a scintillation counter. […]

The next series in a line: water solubility. The note with it: particularly at physiologic pH. The series is classed as physicochemical.
In a further series the test system is HL60 cells. The experiment in a line: HL60 adhesion on activated platelet-coated solid phase. The series is classed as cell-based, human. The note with it: thrombin-stimulated and PMA-stimulated platelets. The procedure:
HL60 (a human promylelocytic cell line available from the ATCC under accession number CCL 240) adhesion on resting or activated platelet-coatedsolid phase was evaluated as follows. Each well of a 48-well plate (Costar Scientific, Cambridge, Mass.) was filled with a poly-L-lysine solution (100 μg/ml in PBS) and incubated for 1 hour. Each well then was washed with PBS and then 150 μl of PBS containing 6×10^7 resting or activated platelets were added to each well and the plate was incubated for 1 hour. Plates were centrifuged (300×g for 7 minutes) and incubated a further 30 minutes at room temperature. Bound platelets were fixed by addition of 0.1% (w/v) glutaraldehyde in PBS for 2 minutes at 4° C. Each well was washed with 10 mM glycine in PBS and plates were incubated with 5% (w/v) BSA containing 0.1% (w/v) sodium azide, 10 mM glycine in PBS for 1 hour at room temperature.

The subject of series [2] is 47 kDa and 65 kDa proteins. The experiment in a line: PMA-stimulated protein phosphorylation in 32P-labeled neutrophils. The format is cell-based, human. The note with it: neutrophils pre-incubated with 15-45 μM, then 1.5 μM PMA. The procedure:
Excess unbound components were removed by centrifugation and the pellets were resuspended in the same buffer, repeating twice. The cells then were divided into 7 treatment groups, each containing ≈1×10^7 cells in a total volume of 0.4 ml. TMS, SPN or DMS was added to a suspension and incubated at 37° C. for 10 min, followed by addition of PMA to a final concentration of 1.5 μM. Two minutes later, the reaction was terminated by adding 0.1 ml of Laemmli sample buffer and 20 mM EDTA, followed by heating at 100° C. for 5 min. Aliquots were separated through 10% sodium dodecyl sulfate gels using known procedures. ^32 P incorporation was visualized by autoradiography.

The subject of series [3] is PK-C. The note with it: literature (Hannun & Bell; Merrill & Stevens); cited from earlier work.
[4] abbreviates: Preincubation with free derivative.

Molecules are shown by their SMILES.

In the case of `CCCCCCCCCCCCCC#CC(O)C(CO)[N+](C)(C)C` (stereo not shown) [4-alkyn-TMS], the Inhibition of metastasis entry in the series on B16BL6 melanoma cells (B16BL6 melanoma cells, no readable footnote on the cell) is on record as “+”.

On to `C[N+](C)(C)[C@@H](CO)[C@H](O)/C=C/CCCCCCCCCCCCC(=O)O` [Carboxy TMS], for which the Inhibition of metastasis result in the series on B16BL6 melanoma cells (setting [4]) is “-”. Further, the “Inhiition of PA” value in the series on platelets is listed as “-”. For the same molecule, in the series on PK-C [1], the PKC inhibition entry is “-”.

As for `CCCCCCCCCCCCCCCC(O)C(CO)[N+](C)(C)C` (stereo not shown) [DHTMS], in the series on B16BL6 melanoma cells (Experimental and spontaneous metastasis with liposomal formulation), the Inhibition of metastasis entry is reported as “+”.

As for `CCCCCCCCCCCCC/C=C/C(O)C(CO)N(C)C` (stereo not shown) [DMS, N,N-dimethylsphingosine], the water solubility result in the series “water solubility” is on record as “less water soluble”. Moreover, the HL60 cell binding result in the series on HL60 cells is recorded as “inhibited strongly”. In series [2], the “phosphorylation of 47 kDa and 65 kDa proteins” value was “diminished significantly”.

As to `CCCCCCCCCCCCC/C=C/C(O)C(CO)NC` (stereo not shown) [MMS, N-monomethylsphingosine], the water solubility result in “water solubility” is given as “less water soluble”.

`COC(=O)CCCCCCCCCCCC/C=C/[C@@H](O)[C@H](CO)[N+](C)(C)C` [Methylcarboxy TMS]: the Inhibition of metastasis entry with B16BL6 melanoma cells (setting [4]) is “-”. Also, the “Inhiition of PA” value in the series on platelets is “-”. In the series on PK-C [1], the PKC inhibition result is given as “-”.

`CCCCCCCCCCCCC/C=C/[C@@H](O)[C@@H](N)CO` [sphingosine, Sphingosine]: the water solubility entry in the series “water solubility” is on record as “less water soluble”. The HL60 cell binding result in the series with HL60 cells is on record as “minimally inhibited”. Besides, the “phosphorylation of 47 kDa and 65 kDa proteins” value in series [2] is “diminished significantly”. In the series with PK-C [3], the PK-C activity result was “inhibited”.

Values taken from patent US6031135A, “Trimethylsphingosine derivatives” (Oncomembrane, Inc., priority 1996, dated 2000).
